From US7037901B1, “Radiosensitization by indolocarbazole derivatives” (priority 2001, dated 2006)

Assays:
[1] = test system: camptothecin-resistant, TOP1 mutant DC3F/C-10 cells
Description: Clonogenic Survival Assay. For a typical clonogenic survival experiment, stock cultures of exponentially growing cells were trypsinized, rinsed, and plated (5×10^5 cells per dish for DC3F and DC3F/C-10 cells; 1×10^6 cells for MCF-7 cells) into 100-mm petri dishes and incubated at 37° C. 18–24 h prior to experimental studies.
Following various experimental protocols with drug incubation and irradiation, cells were trypsinized, rinsed, counted, and plated for […] colony formation. Depending on the anticipated survival level, 10^2 to 10^5 cells were plated per dose point. When higher cell numbers were plated, large petri dishes were used to avoid possible cell-density effect (100-mm instead of 60-mm petri dishes for cell number≧5×10^4). Depending on the treatment protocols, an equivalent amount of DMSO was added into each of the control radiation alone dishes (final DMSO concentration <0.1%).
Following seven to fourteen days of incubation, colonies were fixed with methanol/acetic acid (3:1), stained with crystal violet. Colonies consisting of >50 cells were counted. All survival points were done in triplicate, and experiments were conducted a minimum of two times. Error bars shown in the figures represent standard deviations (SD) and are shown when larger than the symbol.
The DC3F/C-10 cell line was selected from the Chinese Hamster lung fibroblast DC3F cell line in the presence of 1 μM of camptothecin (Albright, N., Radiat. Res., 112:331–340 (1987), and Chen, Y. N., J. Biol. Chem., 265:10073–10080 (1990)). […] In an attempt to determine the importance of TOP1 in mediating the cytotoxic and radiosensitizing effects by INDO derivatives, clonogenic survival assays were performed in DC3F and DC3F/C10 cells.

[2] = test system: human breast cancer MCF-7 cells; test: Clonogenic survival assay, drug alone (cytotoxicity) in MCF-7 cells; format: cell-based; conditions: 1 μM camptothecin for 1 h, read graphically from FIG. 2
Description: (§1) Clonogenic Survival Assay. […] 18–24 h prior to experimental studies.
(§2) Colonies consisting of >50 cells were counted.

[3] = test system: DC3F cells; test: Radiosensitization in DC3F cells (clonogenic survival with radiation); format: cell-based, Chinese hamster
Description: as §1, §2
(§3) Irradiation of Cells. Drug-treated and control cells in medium were irradiated using a cobalt-60 source (Eldorado 8; Theratronics, Canada) at a dose rate of 105 cGy/min.
(§4) Analysis of Survival Curves. Survival curves were corrected for cytotoxicity induced by drug alone treatment. Sensitization enhancement ratios (SERs) and standard deviations for survival curves were determined at 10% cell survival. Each SER was calculated by dividing the radiation dose to induce 10% cell survival in the absence of radiosensitizer with the radiation dose to induce 10% cell survival in the presence of radiosensitizer.

[4] = test system: TOP1 mutant DC3F/C10 cells; test: Radiosensitization in DC3F/C10 cells (clonogenic survival with radiation); format: cell-based, Chinese hamster; conditions: DC3F/C10 cells
Description: as §1, §2, §3, §4

[5] = biological target: T1, covalent topoisomerase-DNA cross-links in CHO cells (Cricetulus griseus, UniProt Q07050, S505G); test: In vivo K+-SDS co-precipitation assay for protein-DNA cross-links; format: cell-based, Chinese hamster; conditions: FIG. 5
T1 construct: endogenous in cells; host or cells: Chinese hamster ovary CHO cells
Description: In vivo K^+-SDS co-precipitation assay for protein-DNA cross-links. The K^+-SDS co-precipitation assay as described previously (Chen, Y. N., et al., J. Biol. Chem., 265:10073–10080 (1990)) was used to quantify the formation of covalent topoisomerase-DNA cross-links in drug-treated cells.
Briefly, the DNA in logarithmic growing Chinese hamster CHO cells was overnight-labeled in medium containing 1 μCi/ml of [mehtyl-^3H] thymidine. These cells were then trypsinized and diluted in fresh medium before aliquoted into a 24-well plate. After overnight incubation, the labeled cells were treated with various concentrations of drugs for 30 min, washed with phosphate-buffered saline once, and lysed by adding 1 ml of prewarmed lysis solution (1.25% SDS, 5 mM EDTA, 0.4 mg/ml salmon sperm DNA, pH 8.0, 65° C.).
Following shearing chromosomal DNA by passing the lysate through a 19-gauge needle, the sample was transferred to a tube containing 0.25 ml of 325 mM KCl. The sample was vortexed vigorously for 10 s, cooled on ice for 10 min and centrifuged at 3000 rpm for 10 min at 4° C.
The pellet was then resuspended in 1 ml of a wash solution (100 mM KCl, 1 mM EDTA, 0.1 mg/ml salmon sperm DNA, 10 mM Tris-HCl, pH 8.0) and placed at 65° C. for 10 min with occasional mixing. The sample was again cooled on ice for 10 min and centrifuged at 3000 rpm for 10 min at 4° C. After the pellet from each sample was washed again, the pellet was finally resuspended in 0.2 ml of 65° C. water and added to 5 ml of scintillation fluid to determine radioactive counts.
The background precipitable counts were obtained by treating the lysate with proteinase K (400 μg/ml) at 65° C. for 2 h. Data are arithmetic means (±SD) of three determinations, and the background counts have been subtracted.

[6] = test system: human breast cancer MCF-7 cells; test: Clonogenic survival assay with radiation (radiosensitization) in MCF-7 cells; format: cell-based
Description: as §1, §2, §3, §4
The updated programs developed by Dr. N. Albright (San Rafael, Calif.) (Albright, N., Radiat. Res., 112:331–340 (1987)) were used for curve fitting for MCF-7 cells with the linear quadratic (LQ) and the single hit multi-target (SHMT) models. Both the LQ and SHMT models gave qualitatively good fits. The fit with the SHMT model was used for the present study.

[7] = biological target: T2, purified human TOP1 (Homo sapiens, UniProt P11387); test: In vitro drug-stimulated TOP1 cleavage assay (pHOT1 plasmid nicking); format: biochemical; conditions: purified human TOP1; FIG. 4, 4C
T2 construct: purchased TopoGEN, Inc. (Columbus, Ohio)
T2 sequence (P11387 1-765): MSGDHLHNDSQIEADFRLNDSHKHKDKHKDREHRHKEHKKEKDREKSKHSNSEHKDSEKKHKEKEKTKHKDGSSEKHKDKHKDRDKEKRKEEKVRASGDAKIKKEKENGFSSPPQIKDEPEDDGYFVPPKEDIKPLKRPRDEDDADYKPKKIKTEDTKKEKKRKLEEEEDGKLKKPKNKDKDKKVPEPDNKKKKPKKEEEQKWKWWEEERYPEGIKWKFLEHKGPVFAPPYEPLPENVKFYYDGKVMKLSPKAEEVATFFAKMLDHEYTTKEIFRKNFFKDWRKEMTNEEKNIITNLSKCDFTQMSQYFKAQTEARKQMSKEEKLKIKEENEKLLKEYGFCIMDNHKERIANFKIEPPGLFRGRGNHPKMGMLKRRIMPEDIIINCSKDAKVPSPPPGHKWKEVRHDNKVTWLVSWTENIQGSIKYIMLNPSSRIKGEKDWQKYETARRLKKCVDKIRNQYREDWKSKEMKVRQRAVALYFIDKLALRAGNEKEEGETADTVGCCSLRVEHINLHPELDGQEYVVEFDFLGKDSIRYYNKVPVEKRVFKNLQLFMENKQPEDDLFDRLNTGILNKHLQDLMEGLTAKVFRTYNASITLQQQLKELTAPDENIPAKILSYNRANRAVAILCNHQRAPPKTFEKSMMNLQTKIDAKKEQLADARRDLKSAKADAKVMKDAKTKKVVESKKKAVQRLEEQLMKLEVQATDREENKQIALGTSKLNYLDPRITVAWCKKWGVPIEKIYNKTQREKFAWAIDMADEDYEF
Description: In vitro drug-stimulated TOP1 cleavage assay. Drug-stimulated DNA cleavage assay using purified human TOP1 was performed according to the protocol provided by TopoGEN Inc. (Columbus, Ohio) with modifications.
Briefly, supercoiled pHOT1 plasmid DNA (0.2 μg) was incubated with 1 unit of human TOP1 in cleavage buffer (50 mM Tris, pH 7.8, 50 mM KCl, 10 mM MgCl2, 1 mM dithiothreitol, 1 mM EDTA) in the presence of varying concentrations of the drug under study. Following a 30-min incubation at 37° C., the reactions were terminated by adding SDS to 1.0% and proteinase K to 200 μg/ml. The proteinase K treatment continued at 37° C. for 1 h. The sample was then mixed with loading dye (containing sucrose and bromphenol blue) and separated in 1% agarose gel in 0.08 M Tris-phosphate, 0.008 M EDTA, pH 8.0 buffer at room temperature for 16 h.
The gel was initially stained with ethidium bromide ([…]), washed and photographed under UV light. In order to separate the “nicked” from the “relaxed” DNA population, the gel was further run for 4 h in the presence of ethidium bromide before being photographed again under UV light. The photograph was scanned and the intensity of the nicked DNA of each lane was measured using the ImageJ program obtained from the National Institutes of Health (web site: rsb.info.nih.gov/ij/). The intensity of the nicked band of each lane was plotted after the background intensity (pHOT1+TOP1 lane) was subtracted.

T1 sequence (Q07050 2-767 S505G): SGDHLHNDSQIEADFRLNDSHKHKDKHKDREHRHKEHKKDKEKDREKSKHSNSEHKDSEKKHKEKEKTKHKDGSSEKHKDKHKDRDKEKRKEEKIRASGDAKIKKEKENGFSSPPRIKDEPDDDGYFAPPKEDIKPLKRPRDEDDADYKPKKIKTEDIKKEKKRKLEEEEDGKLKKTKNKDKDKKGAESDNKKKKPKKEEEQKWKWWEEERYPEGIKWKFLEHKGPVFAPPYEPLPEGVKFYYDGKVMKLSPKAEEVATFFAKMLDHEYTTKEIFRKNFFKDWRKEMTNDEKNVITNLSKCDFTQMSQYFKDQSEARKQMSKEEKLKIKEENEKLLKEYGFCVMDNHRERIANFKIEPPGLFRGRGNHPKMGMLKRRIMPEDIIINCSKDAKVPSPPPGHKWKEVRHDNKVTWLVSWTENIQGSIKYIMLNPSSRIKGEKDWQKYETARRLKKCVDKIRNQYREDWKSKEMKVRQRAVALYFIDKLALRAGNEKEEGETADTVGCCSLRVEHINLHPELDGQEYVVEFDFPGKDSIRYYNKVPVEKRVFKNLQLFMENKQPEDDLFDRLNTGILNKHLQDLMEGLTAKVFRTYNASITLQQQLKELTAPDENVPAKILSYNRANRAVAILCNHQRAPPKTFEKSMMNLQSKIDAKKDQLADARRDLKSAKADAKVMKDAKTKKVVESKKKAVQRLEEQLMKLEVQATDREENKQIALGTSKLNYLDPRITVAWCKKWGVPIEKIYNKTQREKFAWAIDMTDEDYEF

| Structure (SMILES) | Relative resistance of DC3F/C10 cells to the cytotoxic effect ([1]; LD50 of DC3F/C10 divided by LD50 of DC3F, camptothecin 30-min treatment) | RR (relative resistance) ([1]; LD50 of DC3F/C-10 cells divided by LD50 of DC3F cells) | Percent of cell survival without RT [2] [%] | Radiation Dose (Gy) at 10% Survival ([3]; 0.1 μM) [Gy] | SER ([3]; 0.1 μM) | Radiation Dose (Gy) at 10% Survival ([3]; 1.0 μM) [Gy] | SER ([3]; 1.0 μM) | Radiation Dose (Gy) at 10% Survival ([4]; 1.0 μM) [Gy] | SER ([4]; 1.0 μM) | Radiation Dose (Gy) at 10% Survival ([4]; 10 μM) [Gy] | SER ([4]; 10 μM) | Potency in stabilizing DNA-protein crosslinks (rank order) [5] | ER (SER per footnote c, sensitization enhancement ratio) ([6]; 1 μM camptothecin 1 h before radiation, at 10% survival) | Dq (width of the shoulder of the radiation survival curve) ([6]; SHMT model fit, FIG. 3B) | RT dose (Gy) at 10% survival ([6]; pre-treated 1 μM camptothecin 1 h, rinsed, then radiation) [Gy] | Potency in inducing TOP1-mediated DNA cleavage (nicking of pHOT1) [7] |
| --- | --- | --- | --- | --- | --- | --- | --- | --- | --- | --- | --- | --- | --- | --- | --- | --- |
| CC[C@@]1(O)C(=O)OCc2c1cc1n(c2=O)Cc2cc3ccccc3nc2-1 [Camptothecin, Camptothecin lactone, reference compound] | more than 12 fold | >12 | 72 ± 5 | 4.3 | 1.4 | 3.9 | 1.5 | 5.2 | 1.0 | 4.6 | 1.1 | most potent | 1.4 | drastically reduced | 5.0 | – |
| COc1cc([C@@H]2c3cc4c(cc3[C@@H](O[C@@H]3O[C@@H]5CO[C@@H](C)O[C@H]5[C@H](O)[C@H]3O)[C@H]3COC(=O)[C@H]23)OCO4)cc(OC)c1O [etoposide, reference compound] | – | – | – | – | – | – | – | – | – | – | – | – | – | – | – | no activity in inducing TOP1-mediated nicking of DNA |
